According to patent US20220387608A1, “ADRENOMEDULLIN-ANALOGUES FOR LONG-TERM STABILIZATION AND THEIR USE” (Bayer Aktiengesellschaft, priority 2019, published 2022):
Positions of bridges follow the written chain, without caps; N, C: chain ends. Non-standard residues stand in square brackets, D forms with d. Residues, ends and D or L forms follow the SMILES beside them. *: point of attachment. C18 diacid = O=C(O)CCCCCCCCCCCCCCCCC(=O)*; PEG5 = NCCOCCOCCOCCOCCOCCC(=O)O; PEG3 = NCCOCCOCCOCCC(=O)O; Dap = NC[C@H](N)C(=O)O

Molecular target: T1, AM1R (Homo sapiens, UniProt O60895+Q16602)
T1 construct: EYFP; ECFP; expressed in transfected cells; host or cells: HEK-293 (transient co-transfection)
T1 sequence (Q16602 23-461): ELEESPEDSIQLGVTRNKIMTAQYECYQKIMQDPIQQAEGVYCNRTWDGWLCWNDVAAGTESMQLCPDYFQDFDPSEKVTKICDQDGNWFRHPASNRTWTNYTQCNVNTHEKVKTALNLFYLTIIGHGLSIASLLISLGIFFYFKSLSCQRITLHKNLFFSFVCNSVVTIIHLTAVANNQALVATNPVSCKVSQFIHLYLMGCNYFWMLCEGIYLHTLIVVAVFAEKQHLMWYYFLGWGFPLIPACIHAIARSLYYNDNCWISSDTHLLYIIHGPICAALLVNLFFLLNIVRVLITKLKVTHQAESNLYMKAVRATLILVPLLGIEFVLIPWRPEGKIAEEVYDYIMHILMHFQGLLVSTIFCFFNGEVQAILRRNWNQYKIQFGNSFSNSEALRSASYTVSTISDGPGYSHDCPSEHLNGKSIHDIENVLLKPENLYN
T1 sequence (O60895 43-175): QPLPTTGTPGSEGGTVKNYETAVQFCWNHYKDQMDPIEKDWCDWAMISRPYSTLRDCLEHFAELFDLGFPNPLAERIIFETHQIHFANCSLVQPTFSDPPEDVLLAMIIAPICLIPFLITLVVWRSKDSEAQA
Experiment: Activity determination in vitro: cAMP/CRE-luciferase reporter assay in HEK293 cells transiently co-transfected with CLR and RAMP2
Format: cell-based
Conditions: for Emax: HEK293, normalized to [G14]ADM(14-52); for EC50: HEK293 with CLR/RAMP2, CRE-luciferase, 3 h stimulation
Method: (1a) Activity Determination of Adrenomedullin Analogues in vitro
Cell Culture HEK-293 cells (human embryonic kidney cells) were cultured in Ham's F-12/DMEM (1/1; v/v) containing 15% FCS under humidified atmosphere at 37° C. and 5% CO2 in 75 cm^2 cell culture flasks.
Cells were cultured in 75 cm^2 flasks to 70-80% confluency. 45 μl Metafectene® Pro was diluted in 900 ρl Ham's F-12/DMEM (1/1; v/v) and incubated for 20 min at room temperature. 9 μg plasmid containing DNA of CLR fused to EYFP and 3 μg plasmid containing DNA of RAMP2 fused to ECFP were dissolved in 900 μl Ham's F-12/DMEM (1/1; v/v). The plasmid solution was mixed with the Metafectene® Pro solution and incubated for 25 min at room temperature. Medium was removed from the cells and replaced by 6 m1 Ham's F-12/DMEM (1/1; v/v) containing 15% FCS. After addition of transfection solution the cells were incubated for 3 h under humidified atmosphere at 37° C. and 5% CO2. For the second transfection 45 μl Metafectene® Pro was diluted in 900 μl Ham's F-12/DMEM (1/1; v/v) and incubated for 20 min at room temperature. 12 μg of pGL4.29[Luc2P/CRE/Hygro] plasmid containing DNA for the luciferase reporter gene luc2P (with CRE promotor region) were dissolved in 900 μl Ham's F-12/DMEM (1/1; v/v). The plasmid solution was mixed with the Metafectene® Pro solution and incubated for 25 min at room temperature. Medium was removed from the cells and replaced by 6 m1 Ham's F-12/DMEM (1/1; v/v) containing 15% FCS. After addition of transfection solution, the cells were incubated under humidified atmosphere at 37° C. and 5% CO2 over night.
For coating of 96-well-plates, 50 μl of a poly-D-lysine solution in DPBS (0.1 mg/ml) were pipetted in each well and incubated for 40 min. After removal of poly-D-lysine, each well was washed with 50 μl DPBS. Transiently transfected cells were detached from the cell culture flask by removal of the medium, 2-fold washing with 5 m1 DPBS and resuspending in 40 m1 Ham's F-12/DMEM (1/1; v/v) containing 15% FCS. 90,000 to 120,000 cells in 150 μl Ham's F-12/DMEM (1/1; v/v) containing 15% FCS were seeded per well and the plates were incubated under humidified atmosphere at 37° C. and 5% CO2 over night.
For each ligand, a serial dilution with eight different concentrations was prepared using Ham's F^12/DMEM (1/1; v/v). Before stimulation, the medium on the cells was replaced by 100 μl Ham's F^12/DMEM (1/1; v/v) and the plates were incubated for 1 h under humidified atmosphere at 37° C. and 5% CO2. For stimulation, the medium was removed and the cells were incubated for 3 h in 80 μl of ligand-solution under humidified atmosphere at 37° C. and 5% CO2. In addition 80 μl of a 5 μM forskolin solution in Ham's F-12/DMEM (1/1; v/v) was used as a positive control and 80 μl of Ham's F-12/DMEM (1/1; v/v) as a negative control. Each concentration and the controls were tested as triplicates.
After 3 h of stimulation, the solutions were removed and the cells were washed with 50 μl of Ham's F-12/DMEM (1/1; v/v) perwell. After 10 m incubation in 30 μl of Ham's F-12/DMEM (1/1; v/v) at room temperature, 30 μl of luciferase-solution (ONE-Glo™ Luciferase Assay System) was added and the luminescence was directly measured using an Infinite M200 (Tecan).
Data analysis of the luminescence measurement was carried out with GraphPad Prism 5. Therefore, the measured luminescence values of each plate were first corrected on the base of the respective average of forskolin stimulation. Afterwards they were normalized to [G14]ADM(14-52), which was used as standard peptide in every assay. After correction and normalization, data was analyzed using non-linear regression giving dose-response curves for each tested ligand.

CC[C@H](C)[C@H](NC(=O)[C@H](CCC(N)=O)NC(=O)[C@H](Cc1c[nH]cn1)NC(=O)[C@H](C)NC(=O)[C@H](CC(C)C)NC(=O)[C@H](CCCCN)NC(=O)[C@H](CCC(N)=O)NC(=O)[C@@H](NC(=O)[C@@H](NC(=O)[C@@H]1CSSC[C@H](NC(=O)CNC(=O)CN)C(=O)N[C@@H](CCCNC(=N)N)C(=O)N[C@@H](Cc2ccccc2)C(=O)NCC(=O)N[C@@H]([C@@H](C)O)C(=O)N1)[C@@H](C)O)C(C)C)C(=O)N[C@@H](Cc1ccc(O)cc1)C(=O)N[C@@H](CCC(N)=O)C(=O)N[C@@H](Cc1ccccc1)C(=O)N[C@H](C(=O)N[C@@H](CC(=O)O)C(=O)N[C@@H](CCCCN)C(=O)N[C@@H](CC(=O)O)C(=O)N[C@@H](CCCCN)C(=O)N[C@@H](CC(=O)O)C(=O)N[C@@H](CC(N)=O)C(=O)N[C@H](C(=O)N[C@@H](C)C(=O)N1CCC[C@H]1C(=O)N[C@H]1CCCCNC(=O)C[C@@H](C(=O)N2CCC[C@H]2C(=O)N[C@@H](CCC(N)=O)C(=O)NCC(=O)N[C@@H](Cc2ccc(O)cc2)C(N)=O)NC(=O)[C@H]([C@@H](C)CC)NC(=O)[C@H](CCCCN)NC(=O)[C@H](CO)NC1=O)C(C)C)[C@@H](C)O [Example 1, ((4R,7S,13S,16S,19R)-19-(2-(2-aminoacetamido)acetamido)-13-benzyl-16-(3-guanidinopropyl)-7-((R)-1-hydroxyethyl)-6,9,12,15,18-pentaoxo-1,2-dithia-5,8,11,14,17-pentaazacycloicosane-4-carbonyl)-L-threonyl-ADM(23-43)-((2S,5S,8S,11S,18S)-5-(4-aminobutyl)-18-(λ^2-azaneyl)-8-((S)-sec-butyl)-2-(hydroxymethyl)-3,6,9,13,19-pentaoxo-1,4,7,10,14-pentaazacyclononadecane-11-carbonyl)-L-prolyl-ADM(50-52)] (H-GGCRFGTCTVQKLAHQIYQFTDKDKDNVAPKSKIDPQGY-NH2; disulfide 3-8; lactam 31-35)
Emax: 102 ± 3%
EC50: 3.9 nM

CC[C@H](C)[C@H](NC(=O)[C@H](CCC(N)=O)NC(=O)[C@H](Cc1c[nH]cn1)NC(=O)[C@H](C)NC(=O)[C@H](CC(C)C)NC(=O)[C@H](CCCCN)NC(=O)[C@H](CCC(N)=O)NC(=O)[C@@H](NC(=O)[C@@H](NC(=O)[C@@H]1CSSC[C@H](NC(=O)CNC(=O)[C@@H](N)CCCCNC(=O)CCCCCCCCCCCCCCCCC(=O)O)C(=O)N[C@@H](CCCNC(=N)N)C(=O)N[C@@H](Cc2ccccc2)C(=O)NCC(=O)N[C@@H]([C@@H](C)O)C(=O)N1)[C@@H](C)O)C(C)C)C(=O)N[C@@H](Cc1ccc(O)cc1)C(=O)N[C@@H](CCC(N)=O)C(=O)N[C@@H](Cc1ccccc1)C(=O)N[C@H](C(=O)N[C@@H](CC(=O)O)C(=O)N[C@@H](CCCCN)C(=O)N[C@@H](CC(=O)O)C(=O)N[C@@H](CCCCN)C(=O)N[C@@H](CC(=O)O)C(=O)N[C@@H](CC(N)=O)C(=O)N[C@H](C(=O)N[C@@H](C)C(=O)N1CCC[C@H]1C(=O)N[C@@H](CCCNC(=N)N)C(=O)N[C@@H](CO)C(=O)N[C@@H](CCCCN)C(=O)N[C@H](C(=O)N[C@@H](CO)C(=O)N1CCC[C@H]1C(=O)N[C@@H](CCC(N)=O)C(=O)NCC(=O)N[C@@H](Cc1ccc(O)cc1)C(N)=O)[C@@H](C)CC)C(C)C)[C@@H](C)O [Example 5, ((4R,7S,13S,16S,19R)-19-(2-((S)-2-amino-6-(17-carboxyoctadecanamido)hexanamido)acetamido)-13-benzyl-16-(3-guanidinopropyl)-7-((R)-1-hydroxyethyl)-6,9,12,15,18-pentaoxo-1,2-dithia-5,8,11,14,17-pentaazacycloicosane-4-carbonyl)-L-threonyl-ADM(23-52)]
Emax: 105 ± 5%
EC50: 17 nM

CC[C@H](C)[C@H](NC(=O)[C@H](CCC(N)=O)NC(=O)[C@H](Cc1c[nH]cn1)NC(=O)[C@H](C)NC(=O)[C@H](CC(C)C)NC(=O)[C@H](CCCCN)NC(=O)[C@H](CCC(N)=O)NC(=O)[C@@H](NC(=O)[C@@H](NC(=O)[C@@H]1CSSC[C@H](NC(=O)CNC(=O)CN)C(=O)N[C@@H](CCCNC(=N)N)C(=O)N[C@@H](Cc2ccccc2)C(=O)NCC(=O)N[C@@H]([C@@H](C)O)C(=O)N1)[C@@H](C)O)C(C)C)C(=O)N[C@@H](Cc1ccc(O)cc1)C(=O)N[C@@H](CCC(N)=O)C(=O)N[C@@H](Cc1ccccc1)C(=O)N[C@H](C(=O)NCCOCCOCCOCCOCCOCCC(=O)N[C@H](C(=O)N[C@@H](C)C(=O)N1CCC[C@H]1C(=O)N[C@@H](CCCNC(=N)N)C(=O)N[C@@H](CO)C(=O)N[C@@H](CCCCN)C(=O)N[C@H](C(=O)N[C@@H](CO)C(=O)N1CCC[C@H]1C(=O)N[C@@H](CCC(N)=O)C(=O)NCC(=O)N[C@@H](Cc1ccc(O)cc1)C(N)=O)[C@@H](C)CC)C(C)C)[C@@H](C)O [Example 11, ((4R,7S,13S,16S,19R)-19-(2-(2-aminoacetamido)acetamido)-13-benzyl-16-(3-guanidinopropyl)-7-((R)-1-hydroxyethyl)-6,9,12,15,18-pentaoxo-1,2-dithia-5,8,11,14,17-pentaazacycloicosane-4-carbonyl)-L-threonyl-ADM(23-34)-(1-(λ^2-azaneyl)-3,6,9,12,15-pentaoxaoctadecan-18-oyl)-L-valyl-ADM(42-52)] (H-GGCRFGTCTVQKLAHQIYQFT[PEG5]VAPRSKISPQGY-NH2; disulfide 3-8)
Emax: 94 ± 2%
EC50: 39 nM

CC[C@H](C)[C@H](NC(=O)[C@H](CCC(N)=O)NC(=O)[C@H](Cc1c[nH]cn1)NC(=O)[C@H](C)NC(=O)[C@H](CC(C)C)NC(=O)[C@H](CCCCN)NC(=O)[C@H](CCC(N)=O)NC(=O)[C@@H](NC(=O)[C@@H](NC(=O)[C@@H]1CCC(=O)NC[C@H](NC(=O)CNC(=O)[C@@H](N)CCCCNC(=O)CCCCCCCCCCCCCCCCC(=O)O)C(=O)N[C@@H](CCCNC(=N)N)C(=O)N[C@@H](Cc2ccccc2)C(=O)NCC(=O)N[C@@H]([C@@H](C)O)C(=O)N1)[C@@H](C)O)C(C)C)C(=O)N[C@@H](Cc1ccc(O)cc1)C(=O)N[C@@H](CCC(N)=O)C(=O)N[C@@H](Cc1ccccc1)C(=O)N[C@H](C(=O)NCCOCCOCCOCCC(=O)N[C@@H](CC(=O)O)C(=O)N[C@@H](CC(N)=O)C(=O)N[C@H](C(=O)N[C@@H](C)C(=O)N1CCC[C@H]1C(=O)N[C@H]1CCCCNC(=O)C[C@@H](C(=O)N2CCC[C@H]2C(=O)N[C@@H](CCC(N)=O)C(=O)NCC(=O)N[C@@H](Cc2ccc(O)cc2)C(N)=O)NC(=O)[C@H]([C@@H](C)CC)NC(=O)[C@H](CCCCN)NC(=O)[C@H](CO)NC1=O)C(C)C)[C@@H](C)O [Example 17] (H-K(C18 diacid)G[Dap]RFGTETVQKLAHQIYQFT[PEG3]DNVAPKSKIDPQGY-NH2; lactam 3-8, 28-32)
Emax: 77 ± 3%
EC50: 5 nM
